Experimental data as given in BindingDB's records for doi:10.1016/s0028-3908(97)00161-5 (University of Bristol, 1997).

The compounds below were run against Glutamate receptor (Oryctolagus cuniculus, UniProt G1SXH9).
Glutamate receptor, sequence (G1SXH9 whole entry): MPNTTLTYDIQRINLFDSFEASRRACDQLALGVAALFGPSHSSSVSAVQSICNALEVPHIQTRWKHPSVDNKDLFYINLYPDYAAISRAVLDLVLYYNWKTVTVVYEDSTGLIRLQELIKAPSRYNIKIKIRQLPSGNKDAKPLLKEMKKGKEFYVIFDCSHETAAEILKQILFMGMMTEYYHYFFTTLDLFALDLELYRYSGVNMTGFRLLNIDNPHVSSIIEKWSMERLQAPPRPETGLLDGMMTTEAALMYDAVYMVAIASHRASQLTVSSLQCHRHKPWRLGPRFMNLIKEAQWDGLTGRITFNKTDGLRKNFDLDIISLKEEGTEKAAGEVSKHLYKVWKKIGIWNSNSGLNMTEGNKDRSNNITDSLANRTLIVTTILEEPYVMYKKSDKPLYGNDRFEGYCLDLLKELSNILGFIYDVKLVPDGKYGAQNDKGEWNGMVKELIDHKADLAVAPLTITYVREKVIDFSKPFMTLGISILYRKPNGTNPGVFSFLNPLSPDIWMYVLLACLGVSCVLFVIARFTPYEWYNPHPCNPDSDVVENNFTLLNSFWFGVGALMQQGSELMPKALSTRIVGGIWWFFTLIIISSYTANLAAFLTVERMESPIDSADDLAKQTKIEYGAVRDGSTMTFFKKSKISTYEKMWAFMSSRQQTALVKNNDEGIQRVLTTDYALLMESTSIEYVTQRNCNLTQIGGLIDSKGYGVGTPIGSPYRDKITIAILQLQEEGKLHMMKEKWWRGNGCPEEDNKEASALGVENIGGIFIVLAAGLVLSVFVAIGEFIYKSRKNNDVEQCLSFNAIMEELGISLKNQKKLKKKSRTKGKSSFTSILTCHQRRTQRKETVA
Work on C/C(=C\C=C\[C@@H](C)C(=O)O)[C@H]1CN[C@H](C(=O)O)[C@H]1CC(=O)O yielded a Ki of 0.00071 µM. With N[C@@H](Cn1oc(=O)[nH]c1=O)C(=O)O [2-amino-3-(3,5-dioxo[1,2,4]oxadiazolidin-2-yl)propionic acid] the Ki was 0.0165 µM. In the case of N#Cc1cc2nc(O)c(O)nc2cc1[N+](=O)[O-] [7-Cyano-3-hydroxy-6-nitro-quinoxalin-2-ol anion], the Ki is reported as 2.15 µM. Compound N[C@@H](Cn1cc(F)c(=O)[nH]c1=O)C(=O)O [(S)-5-Fluorowillardiine] has a Ki of over 10 µM. With CN[C@H](CC(=O)O)C(=O)O [NMDA] the Ki was over 10 µM.
